The values that follow come from patent US20030049666A1, “Tissue culture assay for measuring drug induced translational recoding at premature stop codons and frameshift mutations” (University of Utah, priority 2001, published 2003).

Assay [1] deals with cystic fibrosis transmembrane conductance regulator (CFTR) protein. The note with it: bronchial cell line carrying a nonsense mutation in the CFTR gene; cited from earlier work.
In a further assay the test system is overall translation. The experiment in a line: inhibition of translation monitored by reduction in renilla luciferase activity in control transfections. The note with it: highest concentration tested, HEK293 control transfections. In kind it is cell-based, human. Here is the method: Transfections were performed using lipofectamine reagent (LifeTechnologies). HEK293 cells (0.15×10^5)were plated in 0.34-cm^2 wells and grown for 24 to 48 hours according to methods well known in the art. All cells were transfected with 0.3 μl of lipofectin and 0.075 μg of plasmid DNA for 15 hours, in serum-free media. Fresh media with serum and varying levels of aminoglycosides (Sigma) were then added, and incubation continued for 24 hours.
(§1) Cells were lysed using passive lysis buffer (Promega, Madison, Wis., and both renilla and firefly luciferase activities were determined using the dual luciferase reporter assay (Promega) on a Dynatech MLX Microtiter Plate Luminometer (Burlington, Mass.). For all reactions, light emission was measured for 2 to 12 seconds after 100μl of luminescence substrate was injected. Stop codon readthrough was calculated by comparing the ratio of firefly to renilla luciferase activity in cultures transfected with p2luc stop codon constructs and compared with ratios obtained from cultures transfected with p2luc control constructs.
A significant difference in stop codon readthrough induced by the aminoglycosides was observed between UGA, UAG, and UAA. […] The nucleotide in the fourth position immediately after the stop codon also contributed to the frequency of stop codon readthrough. This effect is particularly obvious for UGA N, where N=C>U>A≧G in order of most to least stop codon readthrough. […] Inhibition of translation was monitored by examining the reduction in renilla luciferase activity in control transfections.

The subject of assay [2] is stop codons UGA N, UAG N, and UAA N. The experiment in a line: dual luciferase (p2luc) stop codon readthrough assay in HEK293 cells. In kind it is cell-based, human. The note with it: for concentration at which maximal levels of stop codon readthrough were observed: aminoglycoside in growth media for 24 hours; for readthrough of UAA A stop codon: UAA A construct, tissue culture (HEK293). The source says:
The p2luc dual luciferase reporter plasmid system, as described in U.S. Pat. No. 6,143,502, was used to measure the effect of aminoglycosides on stop codon readthrough in tissue culture cells. In this system, the renilla (sea pansy) luciferase and firefly luciferase reporter coding sequences are located on either side of a stop codon (FIG. 1). Stop codon and control constructs (containing a sense codon in place of the stop codon) are transfected in parallel in tissue culture cells. Expression of the upstream renilla luciferase gene provides a way to normalize for differences in transfection efficiencies, translation initiation, and mRNA levels between transfected cultures. […] M. R. Culbertson, RNA surveillance. Unforeseen consequences for gene expression, inherited generic disorders and cancer, 15 Trends Genet. 74-80 (1999). The ability of the dual reporter system to control for differences in mRNA levels between normal and nonsense-containing sequences provides a distinct advantage compared with single reporter or direct protein analysis. After normalization, the differences in downstream firefly luciferase activities between cultures transfected with the stop codon and control sense codon constructs reflect the frequency of stop codon readthrough.
(§2) The stop codons of SEQ ID NO: 1 through SEQ ID NO: 12 and SEQ ID NO: 25 were cloned between the two luciferase genes of p2luc, and control reporter plasmids (SEQ ID NO: 13-24) were produced by changing the first nucleotide of the stop codon to a C. More particularly, complimentary oligonucleotides corresponding to the sequences SEQ ID NO: 1 through SEQ ID NO: 25 were synthesized on an Applied Biosystems model 380C synthesizer (Foster City, Calif.) such that when annealed, they would have SalI- and BamHI-compatible ends. The oligonucleotides were ligated in SalI- and BamHI-digested p2luc vector according to methods well known in the art and transformed to Escherichia coli strain SU1675. DNA sequences were verified by autothermocycler sequencing, and plasmids were purified using the Qiagen Midiprep Kit (Valencia, Calif.) according to the manufacturer's specifications.
The oligonucleotides corresponding to SEQ ID NO: 1 through SEQ ID NO: 12 were identical except for nucleotides 13-16, which contained in-frame stop codons followed by a C, T, A, or G nucleotide. The oligonucleotides corresponding to SEQ ID NO: 13 through SEQ ID NO: 24 were the respective controls, which were identical to the oligonucleotides corresponding to SEQ ID NO: 1 through SEQ ID NO: 12 except the first nucleotide of the stop codon was replaced with a C nucleotide, thus changing the stop codon to a sense codon. The oligonucleotide corresponding to SEQ ID NO: 25 comprises the sequence surrounding the mdx mouse dystrophin mutation.
Translational readthrough of the stop codons of oligonucleotides corresponding to SEQ ID NO: 1 through SEQ ID NO: 12 was determined in a human embryonic kidney cell line (HEK293, e.g., ATCC CRL-1573) grown in the presence of varying amounts of G-418, gentamicin, and paromomycin, which have been particularly effective in inducing stop codon readthrough in yeast. A. Singh et al., Phenotypic suppression and misreading Saccharomyces cerevisiae, 277 Nature 146-148 (1979); E. Palmer et al., Phenotypic suppression of nonsense mutants in yeast by aminoglycoside antibiotics, 277 Nature 148-150 (1979). HEK293 cells were maintained as monolayer cultures growing in Dulbecco's Modified Eagle Medium with 1,000 mg/L of D-glucose, L-glutamine, pyridoxine hydrochloride, and 110 mg/L of sodium pyruvate supplemented with 10% fetal bovine serum and 50 units/ml penicillin/50 µg/ml streptomycin. All cells were incubated at 37° C. in an atmosphere of 5% CO2. All media, penicillin, and streptomycin were obtained from LifeTechnologies (Rockville, Md.); aminoglycosides were purchased from Sigma (St Louis, Mo.); and all sera were obtained from HyClone (Logan, Utah). […]

The subject of another assay is dystrophin. To be noted: cited from earlier work.
Assay [3] concerns mdx premature stop codon / UGA C control. The assay can be described thus: dual luciferase stop codon readthrough assay in mouse myoblast C2C12 cell line. The format is cell-based.
Description: as §2, with “DNA sequences were verified by autothermocycler sequencing, and plasmids were purified using the Qiagen Midiprep Kit (Valencia, Calif.) according to the manufacturer's specifications.” left out
as §1, with “constructs. […]” for “constructs.”

As to `CN[C@@H]1[C@@H](O)[C@@H](O[C@@H]2[C@@H](O)[C@H](O[C@H]3O[C@H]([C@@H](C)O)[C@@H](O)[C@H](O)[C@H]3N)[C@@H](N)C[C@H]2N)OC[C@]1(C)O` [G-418], the “expression of CFTR protein” value in assay [1] is “restore the expression”. The “reduction in overall translation” value in the assay with overall translation is listed as approximately 50%. Further, in assay [2] (HEK293 cells), the “stop codon readthrough on a mass basis, comparison of the three aminoglycosides” value is on record as “induced the most readthrough on a mass basis” and the “concentration at which maximal levels of stop codon readthrough were observed” value amounted to 0.4 mg/mL. For the same molecule, in assay [2], the “readthrough of UAA A stop codon” value is “approximately 1%”.
Consider `NC[C@@H]1O[C@H](O[C@H]2[C@@H](O)[C@H](O[C@@H]3[C@@H](O)[C@H](N)C[C@H](N)[C@H]3O[C@H]3O[C@H](CO)[C@@H](O)[C@H](O)[C@H]3N)O[C@@H]2CO)[C@H](N)[C@@H](O)[C@@H]1O` [paromomycin], for which the “reduction in overall translation” value in the assay on overall translation is reported as “little effect on translation”. Moreover, the “concentration at which maximal levels of stop codon readthrough were observed” value in assay [2] (HEK293 cells) came out at 2 mg/mL. In addition, in assay [2], the “readthrough of UAA A stop codon” value is reported as “approximately 1%”.
With gentamicin, the “expression of CFTR protein” value in assay [1] is “restore the expression”. Besides, the “reduction in overall translation” value in the assay with overall translation is recorded as approximately 20%. Also, the “effect on premature stop codon in the dystrophin gene of the mdx mouse” value in the assay on dystrophin is listed as “can partially reverse the effects of a premature stop codon”. Also, the “full-length dystrophin protein expressed on aminoglycoside treatment” value in the assay on dystrophin (mdx mouse) was 10 to 20%. Moreover, in assay [3], the “gentamicin-induced readthrough of mdx sequence in C2C12 cells compared with UAA A construct in HEK293 cells” value is reported as “No increase”. For the same molecule, the “readthrough of UAA A stop codon” value in assay [2] is “approximately 1%”.
